{"source": "paper PMC4452638", "about": "“Synthesis and preclinical evaluation of DOTAGA-conjugated PSMA ligands for functional imaging and endoradiotherapy of prostate cancer” (EJNMMI Research, 2014)", "key": {"[1]": {"assay": "In vivo metabolite analysis by radio-HPLC", "conditions": "CD-1 nu/nu mice, 0.5 h p.i.", "description": "^177Lu-10 and ^177Lu-11 were incubated in 80 μL of human serum (37°C) and 80 μL 0.4 M DTPA solution (RT), respectively and after 1, 24 and 48 h, the stability was determined by TLC analysis. The ^68Ga-labelled tracers (40 to 45 MBq) were injected into the tail vein of CD-1 nu/nu mice. The animals were sacrificed after 30 min, and urine, blood and kidney samples were taken. The kidney was frozen in liquid nitrogen, homogenized with a ball mill and extracted with 0.2 to 1 mL PBS containing 200 nmol 2-(phosphonomethyl)pentane-1,5-dioic acid (PMPA). The suspension was first centrifuged (15,000 g), and after ultrafiltration, the extracts were analysed by RP-HPLC. The blood samples were centrifuged to separate the plasma from the blood cells. Plasma proteins were removed by precipitation with acetonitrile (10 min, 4°C) and subsequent centrifugation and ultrafiltration. The blood extract was also analysed by RP-HPLC.\nTo investigate the influence of the amino acid composition of the spacer (KFF vs kff) on the metabolic stability in vivo, tissue homogenates and body fluids of mice injected with ^68Ga-11 and ^68Ga-12 were analysed by radio-HPLC. Extraction efficiencies from the blood and from the kidney were 56% and 43% for ^68Ga-11 and 61% and 62% for ^68Ga-12, respectively."}, "[2]": {"assay": "Determination of lipophilicity (shake flask, n-octanol/PBS)", "assay_type": "physicochemical", "conditions": "n-octanol/PBS; listed for 11/12 but determined for the FFK analogue 11 only (footnote a)", "description": "To a solution of 0.5 to 1 MBq of radiolabelled peptide in 500 μl of phosphate-buffered saline (PBS, pH 7.4), 500 μl of n-octanol was added (n = 6). Vials were vortexed vigorously for 3 min. To achieve quantitative phase separation, the vials were centrifuged at 6,000 g for 5 min in a Biofuge 15 (Heraeus Sepatech, Osterode, Germany). The activity concentrations in 100 μl-samples of both the aqueous and the organic phase were measured in a γ-counter. Both the partition coefficient P(o/w), which is defined as the molar concentration ratio of a single species A between n-octanol and water at equilibrium, and logP(o/w), which is an important parameter used to characterize lipophilicity of a compound, were calculated.\nThe partition coefficient logP between n-octanol and PBS was determined for the compounds listed in Table 3 using the shake flask method. All compounds are highly hydrophilic, with the DOTAGA compounds being up to one order of magnitude more hydrophilic than the corresponding DOTA analogues. Amongst all compounds tested, [^68Ga]HBED-CC-Ahx-KuE was the most hydrophilic compound."}, "LNCaP tumour xenograft": {"tested_on": "LNCaP tumour xenograft", "assay": "Biodistribution in LNCaP-tumour-bearing mice", "assay_type": "in vivo", "conditions": "LNCaP-tumour bearing CD-1 nu/nu mice, 1 h p.i.", "description": "All animal experiments were conducted in accordance with general animal welfare regulations in Germany (Deutsches Tierschutzgesetz, approval #55.2-1-54-2532-71-13). The prostate cancer cell line LNCaP was suspended 1/1 in serum-free medium and Matrigel (BD Biosciences, Germany) and approximately 10^7 cells in 200 μL were inoculated subcutaneously on the right shoulder of 6 to 8 weeks old CD-1 nu/nu mice (Charles River Laboratories). Tumours were grown for 2 to 4 weeks (males) and 4 to 6 weeks (females) to reach 4 to 8 mm in diameter.\nBiodistribution: The ^68Ga-labelled PSMA ligands (approximately 7 to 15 MBq, 0.1 to 0.2 nmol) were injected into the tail vein of isoflurane anesthetized animals. The organ distribution was examined 1 h p.i. and quantified in a γ-counter.\nA comparison of the biodistribution of compounds ^68Ga-11, ^68Ga-12 and the reference [^68Ga]HBED-CC-Ahx-KuE in LNCaP-tumour-bearing CD-1 nu/nu mice (1 h p.i.) is shown in Figure 7."}, "[3]": {"tested_on": "PSMA-expressing LNCaP cells", "assay": "Internalization studies / cell binding in LNCaP cells", "assay_type": "cell-based, human", "conditions": "68Ga compounds, c = 0.2 nM, 37°C, 1 h, 125,000 cells/well, corrected for unspecific binding", "description": "Cell culture: PSMA^+ LNCaP cells (CLS: 300265) were grown in DMEM/Nutrition Mix F-12 with Glutamax-I (1:1) (Invitrogen, Life Technologies, Darmstadt, Germany) supplemented with 10% FCS. Cultures were maintained at 37°C in a 5% CO2/humidified air atmosphere. One day prior to the experiment, cells were harvested using Trypsin/EDTA (0.05% and 0.02%) in PBS, centrifuged and resuspended with culture medium. For cell counting, a Countesse automated cell counter (Invitrogen, Carlsbad, USA) was used. All in vitro binding and internalization studies were performed using live cells seeded 1 day prior to the experiment. For IC50 determination, 150,000 cells/mL were transferred to 24-well plates (1 mL/well), and for internalization studies, 125,000 cells/mL were transferred into PLL-coated 24-well plates.\nInternalization studies: The culture medium was removed, and the cells were washed once with 500 μL DMEM-F12 (5% BSA) before being left to equilibrate in 200 μL DMEM-F12 (5% BSA) at 37°C for a minimum of 15 min. Then, 25 μL (per well) of either DMEM-F12 (5% BSA) or of a 100-μM PMPA solution (blocking) was added, followed by the addition of 25 μL of ^68Ga/^177Lu-labelled PSMA ligand. The final radioligand concentration was 0.2/0.5 nM in all internalization assays. To determine internalization kinetics, cells were then incubated at 37°C for 5, 15, 30 and 60 min, respectively. Experiments were carried out in triplicate for each time point (control and blocking). Incubation was terminated by placing the plate on ice for approximately 1 min and by subsequent removal of the incubation medium. Cells were thoroughly rinsed with 250 μL of PBS. The wash medium was combined with the supernatant of the previous step. This fraction represents the amount of free radioligand. To remove receptor surface bound radioactivity, the cells were then incubated for 10 min with 250 μL of ice cold PMPA solution (10 μM in PBS). After removal of the supernatant, the cells were thoroughly rinsed with another 250 μL of ice cold PBS. Both fractions were combined. The internalized activity was released by incubation with 250 μL of 1 N NaOH, transferred to vials and combined with 250 μL of 1 N NaOH used for rinsing the wells. Quantification of the amount of free, PMPA-releasable and internalized activity was performed in a γ-counter.\nThe cellular uptake and internalization kinetics of the different ^68Ga- and ^177Lu-labelled PSMA ligands was determined using PSMA-expressing LNCaP cells. In the case of the ^68Ga-labelled compounds, the final peptide concentration in the assays was 0.2 nM. […] All internalization studies were accompanied by reference studies using ([^125I]I-BA)KuE (c = 0.2 nM). This experimental setup allows data normalization and eliminates the influence of cell count and cell viability on absolute cellular tracer uptake. […] Furthermore, to be able to discriminate between total cellular activity (sum of membrane associated and internalized activity) and internalized activity, all incubations were followed by a washing step with 10 μM PMPA at 4°C to remove specifically cell-surface bound radioligand by displacement."}}, "data": [{"substance": "[^68Ga]DOTAGA-ffk(Sub-KuE) [^68Ga-12]", "values": [{"measurement": "Intact tracer in blood", "setting": "[1]", "result": 100, "unit": "%"}, {"measurement": "log P (o/w)", "setting": "[2]", "result": "−3.6 ± 0.1"}, {"measurement": "Kidney accumulation", "setting": "LNCaP tumour xenograft", "result": "96 ± 45", "unit": "% ID/g"}, {"measurement": "Tracer uptake into liver", "setting": "LNCaP tumour xenograft", "result": "0.2 ± 0.04", "unit": "% ID/g"}, {"measurement": "Tracer uptake into lung", "setting": "LNCaP tumour xenograft", "result": "1.1 ± 0.3", "unit": "% ID/g"}, {"measurement": "Tracer uptake into pancreas", "setting": "LNCaP tumour xenograft", "result": "0.4 ± 0.1", "unit": "% ID/g"}, {"measurement": "Tracer uptake into spleen", "setting": "LNCaP tumour xenograft", "result": "5.5 ± 0.2", "unit": "% ID/g"}, {"measurement": "Tumour-to-blood ratio", "setting": "LNCaP tumour xenograft", "result": "17.0 ± 0.5"}, {"measurement": "Tumour-to-skeletal muscle ratio", "setting": "LNCaP tumour xenograft", "result": "19.8 ± 0.7"}, {"measurement": "Uptake in gastrointestinal tract", "setting": "LNCaP tumour xenograft", "result": "< 0.5", "unit": "% ID/g"}, {"measurement": "Uptake into LNCaP tumour xenograft", "setting": "LNCaP tumour xenograft", "result": "5.2 ± 1.2", "unit": "% ID/g"}, {"measurement": "Internalization (1 h) in % of ([125I]I-BA)KuE", "setting": "[3]", "result": "42.5 ± 1.7", "unit": "%"}]}]}
